Measurements published in patent US20260285857A1, “BICYCLIC AND HETEROCYCLIC AMIDE COMPOUNDS” (priority 2024, published 2026).

What follows are compounds tested on immunoglobulin light chain protein WIL-FL T46L (assay: Differential scanning fluorimetry (thermal shift) assay). Details: Table A; temperature shift [Tm]compound-[Tm]vehicle; recombinant WIL-FL T46L.
Format: binding

| SMILES | DSF |
| --- | --- |
| CNC(=O)C1C2COC1(c1nc3c(C)cc(N4CC[C@](C)(c5ccccc5)C4)cn3n1)C2 (stereo partly shown) [Example 72] | ***** (>2.5° C.=*****) |

Same assay, conditions: Table B; temperature shift [Tm]compound-[Tm]vehicle; recombinant WIL-FL T46L

| SMILES | DSF |
| --- | --- |
| Cc1cc(N2CC3(CC[C@@]3(C)c3ccccc3)C2)cn2nc(C(=O)N3CC[C@@]4(CCN(c5cccc(C(=O)O)n5)C4)C3)nc12 [Compound 743, 6-[(5R)-2-[8-methyl-6-[(7S)-7-methyl-7-phenyl-2-azaspiro[3.3]heptan-2-yl]-[1,2,4]triazolo[1,5-a]pyridine-2-carbonyl]-2,7-diazaspiro[4.4]nonan-7-yl]pyridine-2-carboxylic acid] | ***** (>2.5° C.=*****) |
| Cc1cc(N2CCC(C)(n3cc(C(F)(F)F)cn3)C2)cn2nc(C(=O)N3CC[C@@]4(CCN(c5cccc(C(=O)O)n5)C4)C3)nc12 (stereo partly drawn) [Compound 744, 6-[(5R)-2-[8-methyl-6-[3-methyl-3-[4-(trifluoromethyl)pyrazol-1-yl]pyrrolidin-1-yl]-[1,2,4]triazolo[1,5-a]pyridine-2-carbonyl]-2,7-diazaspiro[4.4]nonan-7-yl]pyridine-2-carboxylic acid] | ***** (>2.5° C.=*****) |
| Cc1ccn(C2(C)CCN(c3cc(C)c4nc(C(=O)N5CC[C@@]6(CCN(c7cccc(C(=O)O)n7)C6)C5)nn4c3)C2)n1 (stereo partly shown) [Compound 745] | *** (>1-1.5° C.=***) |
| Cc1cc(N2CC[C@](C)(c3cccc(Cl)c3)C2)cn2nc(C(=O)N3CC[C@@]4(CCN(c5cccc(C(=O)O)n5)C4)C3)nc12 [Compound 747] | ***** (>2.5° C.=*****) |
| Cc1cc(N2CC[C@](C)(c3ccc(F)c(Cl)c3)C2)cn2nc(C(=O)N3CC[C@@]4(CCN(c5cccc(C(=O)O)n5)C4)C3)nc12 [Compound 748] | ***** (>2.5° C.=*****) |
| Cc1cc(N2CC[C@](C)(c3ccccc3F)C2)cn2nc(C(=O)N3CC[C@@]4(CCN(c5cccc(C(=O)O)n5)C4)C3)nc12 [Compound 749] | ***** (>2.5° C.=*****) |
| Cc1ccc([C@@]2(C)CCN(c3cc(C)c4nc(C(=O)N5CC[C@@]6(CCN(c7cccc(C(=O)O)n7)C6)C5)nn4c3)C2)cc1 [Compound 750] | ***** (>2.5° C.=*****) |
| Cc1cc(N2CC[C@](C)(c3ccc(Cl)c(F)c3)C2)cn2nc(C(=O)N3CC[C@@]4(CCN(c5cccc(C(=O)O)n5)C4)C3)nc12 [Compound 751] | ***** (>2.5° C.=*****) |
| Cc1cc(N2CC(CF)(c3ccccc3)C2)cn2nc(C(=O)N3CC[C@@]4(CCN(c5cccc(C(=O)O)n5)C4)C3)nc12 [Compound 752, 6-[(5R)-2-[6-[3-(fluoromethyl)-3-phenyl-azetidin-1-yl]-8-methyl-[1,2,4]triazolo[1,5-a]pyridine-2-carbonyl]-2,7-diazaspiro[4.4]nonan-7-yl]pyridine-2-carboxylic acid] | ***** (>2.5° C.=*****) |
| Cc1cc(N2CC[C@](C)(c3cccc(F)c3)C2)cn2nc(C(=O)N3CC[C@@]4(CCN(c5cccc(C(=O)O)n5)C4)C3)nc12 [Compound 755] | ***** (>2.5° C.=*****) |
| Cc1cc(N2CC[C@](C)(c3ccccc3)C2)cc2nc(C(=O)N3CC[C@@]4(CCN(c5cccc(C(=O)O)n5)C4)C3)oc12 [Compound 756, 6-[(5R)-2-[7-methyl-5-[(3R)-3-methyl-3-phenyl-pyrrolidin-1-yl]-1,3-benzoxazole-2-carbonyl]-2,7-diazaspiro[4.4]nonan-7-yl]pyridine-2-carboxylic acid] | **** (>1.5-2.5° C.=****) |
| CNC(=O)c1nc2c(Cc3nc(CC(=O)O)n[nH]3)cc(N3CC[C@](C)(c4ccccc4)C3)cn2n1 [Compound 759, 2-[5-[[2-(methylcarbamoyl)-6-[(3R)-3-methyl-3-phenyl-pyrrolidin-1-yl]-[1,2,4]triazolo[1,5-a]pyridin-8-yl]methyl]-1H-1,2,4-triazol-3-yl]acetic acid] | **** (>1.5-2.5° C.=****) |
| CNC(=O)c1nc2c(C(F)F)cc(N3CC[C@](C)(c4ccccc4)C3)cn2n1 [Compound 760, (R)-8-(difluoromethyl)-N-methyl-6-(3-methyl-3-phenylpyrrolidin-1-yl)-[1,2,4]triazolo[1,5-a]pyridine-2-carboxamide] | ***** (>2.5° C.=*****) |
| Cc1cc(N2CC[C@](C)(c3ccccc3)C2)cn2nc(C(=O)N3CC[C@@H]4NC(=O)C[C@@H]43)nc12 [Compound 762] | ***** (>2.5° C.=*****) |
| Cc1cc(N2CC[C@@](C)(c3cccc(F)c3)C2)cn2nc(C(=O)N3CC[C@@]4(CCN(c5cccc(C(=O)O)n5)C4)C3)nc12 [Compound 763, 6-((R)-7-(6-((S)-3-(3-fluorophenyl)-3-methylpyrrolidin-1-yl)-8-methyl-[1,2,4]triazolo[1,5-a]pyridine-2-carbonyl)-2,7-diazaspiro[4.4]nonan-2-yl)picolinic acid] | ***** (>2.5° C.=*****) |
